Measured values published in patent US11572341B2, “Biguanide compound and use thereof” (ImmunoMet Therapeutics Inc., priority 2014, dated 2023).
Where a name gives a salt, the structure may show the parent alone.

Columns and labels:
AMPKa [pT172] = experiment: AMPKa activation [pT172] in MCF7 cell; format: cell-based
HCT116 cells = experiment: Inhibitory effect against cancer cell proliferation (MTT); format: cell-based, human; conditions: Homo sapiens, HCT-116; HCT116, MTT, 48 hours; read-out: IC50 (uM) @ HCT116
Experimental: The formazane crystals thus formed were dissolved using dimethyl sulfoxide (DMSO) and absorbance of the solution was measured at 560 nm. After culturing for 48 hours, […] synthesized in Examples was indicated as cell viability (%) according to each treated concentration.

Row | IC50 (HCT116 cells) [µM] | Structure (SMILES) | AMPKa activation [pT172] (Unit/ml) @ MCF7 cell (AMPKa [pT172]; 5 uM) [Unit/ml] | AMPKa activation [pT172] (Unit/ml) @ MCF7 cell (AMPKa [pT172]; 10 uM) [Unit/ml] | AMPKa activation [pT172] (Unit/ml) @ MCF7 cell (AMPKa [pT172]; 50 uM)
1 | – | CCOC1CCN(C(=N)NC(=N)Nc2cccc(OC(F)(F)F)c2)CC1.Cl [Example 25] | 5.8 | 7.0 | cell death
2 | – | CN1CCN(C(=N)NC(=N)NCc2cccc(Cl)c2)CC1.Cl [Example 35] | 5.0 | 4.2 | 3.4 Unit/ml
3 | – | CNC(=N)NC(=N)N.Cl [Example 108, N1-methyl Biguanide Hydrochloride] | – | – | 3.9 Unit/ml
4 | 8.2 | C/N=C(\NCc1ccccc1)NC(=N)N(C)C [Example 96, N1-benzyl-N2-methyl-N5,N5-dimethyl Biguanide Hydrochloride] | – | – | –
5 | – | CCCC1CC(=O)N=C(NC(=N)N2CCCCC2)N1.Cl (stereo not shown) [Example 163, N-(6-propyl-4-oxo-1,4,5,6-tetrahydropyrimidin-2-yl)piperidin-1-carboximidamide Hydrochloride] | 4.07 | 3.76 | 4.48 Unit/ml
6 | – | Cl.N=C(NC1=NCCCN1)N1CCCCC1 [Example 153, N-(1,4,5,6-tetrahydropyrimidin-2-yl)piperidin 1-carboximidamide Hydrochloride] | 8.0 | 6.8 | 6.3 Unit/ml
7 | – | Cl.N=C(NCCc1ccccc1Cl)NC(=N)N1CCCCC1 [Example 14] | – | – | 11.0 Unit/ml
8 | 8.4 | CCOC1CCN(C(=N)NC(=N)Nc2cccc(OC(F)(F)F)c2)CC1.Cl [Example 25, N1-(4-ethoxy)piperidin-N5-3-trifluoromethoxy)phenyl Biguanide Hydrochloride] | – | – | –
9 | – | CCC1CCNC(NC(=N)N2CCCCC2)=N1.Cl (stereo not shown) [Example 165, N-(4-ethyl-1,4,5,6-tetrahydropyrimidin-2-)piperidin-1-carboximidamide Hydrochloride] | 3.80 | 4.36 | 9.16 Unit/ml
10 | – | CN(C)C(=N)NC(=N)N1CCCCC1.Cl [Example 1, N1,N1-dimethyl-N5-piperidine Biguanide Hydrochloride] | – | – | 4.6 Unit/ml
11 | – | CN1CCN(C(=N)NC(=N)Nc2ccc(Cl)cc2)CC1.Cl [Example 27] | 9.8 | 8.7 | 14.3 Unit/ml
12 | – | CC1(C)CC(=O)N=C(NC(=N)N)N1.Cl [Example 152] | 7.9 | 8.1 | 8.6 Unit/ml
13 | – | CC1CNC(NC(=N)N)=NC1=O.Cl (stereo not shown) [Example 160, 1-(5-methyl-4-oxo-1,4,6-tetrahydropyrimidin-3-yl)guanidine Hydrochloride] | 2.51 | 2.65 | 2.84 Unit/ml
14 | – | Cl.N=C(NC(=N)N1CCCC1)Nc1ccc(Br)cc1 [Example 72] | 5.4 | 6.6 | 19.1 Unit/ml
15 | – | CC(C)CC1CC(=O)N=C(NC(=N)N2CCCCC2)N1.Cl (stereo not shown) [Example 161, N-(6-isobutyl-4-oxo-1,4,5,6-tetrahydropyrimidin-2-yl)piperidin-1-carboximidamide Hydrochloride] | 3.03 | 2.73 | 4.06 Unit/ml
16 | – | CC1CCN(C(=N)NC(=N)Nc2ccc(Cl)cc2)CC1.Cl [Example 55] | 3.5 | 5.3 | cell death
17 | – | Cl.N=C(N)NC(=N)Nc1ccc(OC(F)(F)F)cc1 [Example 140] | 6.2 | 6.6 | 8.7 Unit/ml
18 | > 100 | Cl.N=C(N)NC(=N)N1CCOCC1 [Example 118, Hydrochloride] | – | – | –
19 | – | CC(C)C1CC(=O)N=C(NC(=N)N2CCCCC2)N1.Cl (stereo not shown) [Example 159, N-(6-isopropyl-4-oxo-1,4,5,6-tetrahydropyrimidin-2-yl)piperidin-1-carboximidamide Hydrochloride] | 2.17 | 2.35 | 3.02 Unit/ml
20 | – | CN(C)/C(=N\Cc1ccc(F)cc1)NC(=N)N1CCCCC1.Cl [Example 93, N1,N1-dimethyl-N2-(4-fluoro)benzyl-N5-piperidine Biguanide Hydrochloride] | – | – | 6.6 Unit/ml
21 | > 100 | CN1CCN(C(=N)NC(=N)Nc2ccc(Cl)cc2)CC1.Cl [Example 27, N1-(4-methyl)piperazin-N5-4-chloro)phenyl Biguanide Hydrochloride] | – | – | –

Row | IC50 (HCT116 cells) [µM] | Structure (SMILES) | AMPKa activation [pT172] (Unit/ml) @ MCF7 cell (AMPKa [pT172]; 5 uM) [Unit/ml] | AMPKa activation [pT172] (Unit/ml) @ MCF7 cell (AMPKa [pT172]; 10 uM) [Unit/ml] | AMPKa activation [pT172] (Unit/ml) @ MCF7 cell (AMPKa [pT172]; 50 uM)
22 | 4.8 | N=C(NC(=N)Nc1cccc(Br)c1)Nc1cccc(Br)c1 [Example 11, N1-(3-bromo)phenyl-N5-3-bromo)phenyl Biguanide Hydrochloride] | – | – | –
23 | – | CC1CN=C(NC(=N)N2CCCCC2)NC1.Cl (stereo not shown) [Example 158, N-(5-methyl-1,4,5,6-tetrahydropyrimidin-2-yl)piperidin-1-carboximidamide Hydrochloride] | 3.11 | 2.49 | 3.75 Unit/ml
24 | > 100 | CN1CCN(C(=N)NC(=N)NCc2cccc(Cl)c2)CC1.Cl [Example 35, N1-(4-methyl)piperazin-N5-3-chloro)benzyl Biguanide Hydrochloride] | – | – | –
25 | > 100 | CN1CCN(C(=N)NC(=N)Nc2ccc(F)c(F)c2)CC1.Cl [Example 38, N1-(4-methylpiperazin-N5-(3,4-difluoro)phenyl Biguanide Hydrochloride] | – | – | –
26 | – | Cl.N=C(N)NC(=N)N1CCOCC1 [Example 118] | – | – | 6.0 Unit/ml
27 | – | CC1CCNC(NC(=N)N2CCCCC2)=N1.Cl (stereo not shown) [Example 162, N-(4-methyl-1,4,5,6-tetrahydropyrimidin-2-yl)piperidin-1-carboximidamide Hydrochloride] | 4.41 | 4.04 | 7.34 Unit/ml
28 | – | CN1CCN(C(=N)NC(=N)Nc2ccc(F)c(F)c2)CC1.Cl [Example 38] | 5.9 | 5.1 | 6.4 Unit/ml
29 | 10.4 | CC1CCN(C(=N)NC(=N)Nc2ccc(Cl)cc2)CC1.Cl [Example 55, N1-4-methyl)piperidin-N5-(4-chloro)phenyl Biguanide Hydrochloride] | – | – | –
30 | 23.7 | Cl.N=C(NCc1ccc(OC(F)(F)F)cc1)NC(=N)Nc1cccnc1 [Example 42, Hydrochloride] | – | – | –
31 | – | CC1CC(=O)N=C(NC(=N)N)N1.Cl (stereo not shown) [Example 164] | 2.89 | 3.43 | 2.77 Unit/ml
32 | – | Cl.N=C(NC(=N)N1CCCCC1)N1CCCCC1 [Example 2, N1-piperidin-N5-piperidine Biguanide Hydrochloride] | – | – | 4.9 Unit/ml
33 | 100 | Cl.N=C(N)NC(=N)Nc1ccc(OC(F)(F)F)cc1 [Example 140, Hydrochloride] | – | – | –
34 | – | Cl.N=C(NCCc1ccc(Cl)cc1)NC(=N)N1CCCCC1 [Example 13] | – | – | 7.0 Unit/ml
35 | – | Cl.N=C(NCc1ccc(OC(F)(F)F)cc1)NC(=N)Nc1cccnc1 [Example 42] | 4.3 | 8.7 | 19.1 Unit/ml
36 | – | Cl.N=C(NCc1ccc2c(c1)OCO2)NC(=N)N1CCCCC1 [Example 9, N1-piperidin-N5-(benzo[d][1,3]dioxol-5-yl)methyl Biguanide Hydrochloride] | – | – | 16.3 Unit/ml
37 | – | CCCCN/C(=N\C1CCCCCC1)NC(=N)N.Cl [Example 92, N1-butyl-N2-cycloheptyl Biguanide Hydrochloride] | – | – | 21.1 Unit/ml
38 | – | CN(C)C(=N)NC(=N)NCc1ccc2c(c1)OCO2.Cl [Example 4, N1,N1-dimethyl-N5-(benzo[d][1,3]dioxol-5-yl)methyl Biguanide Hydrochloride] | – | – | 3.8 Unit/ml
39 | – | Cl.N=C(NC1=NC(=O)CC(C2CC2)N1)N1CCCCC1 (stereo not shown) [Example 157, N-(6-cyclopropyl-4-oxo-1,4,5,6-tetrahydropyrimidin-2-yl)piperidin-1-carboximidamide Hydrochloride] | 4.17 | 2.68 | 2.00 Unit/ml
40 | – | Cl.N=C(NC(=N)N1CCCC1)N1CCCCC1 [Example 5, N1-piperidin-N5-pyrrolidine Biguanide Hydrochloride] | – | – | 5.8 Unit/ml
41 | – | CN(C)C(=N)NC(=N)N(C)Cc1cccc2ccccc12.Cl [Example 3, N1,N1-dimethyl-N5-methyl-N5-1-(naphthalen-1-yl)methyl Biguanide Hydrochloride] | – | – | 6.2 Unit/ml
42 | – | CC1(C)CC(=O)N=C(NC(=N)N2CCCCC2)N1.Cl [Example 151, N-(6,6-dimethyl-4-oxo-1,4,5,6-tetrahydropyrimidin-2-yl)piperidin-1-carboximidamide Hydrochloride] | 9.4 | 7.7 | 11.2 Unit/ml
